Test results reported in patent US6113907A, “Pharmaceutical grade St. John's Wort” (priority 1997, dated 2000).
Where “and” joins values, the source holds several entries; their conditions need not be identical. Equal values may be shown once. Where a name gives a salt, the structure may show the parent alone. Read-outs that look alike come from different tables or passages of the source.

Columns and labels:
serotonin transporter [1] = target: T1, serotonin transporter (Rattus norvegicus, UniProt P31652); conditions: cited from earlier work
T1 construct: Cerebral cortical membranes derived from male Wistar rats; from tissue; host or cells: cerebral cortical membranes of male Wistar rats
T1 sequence (P31652 whole entry): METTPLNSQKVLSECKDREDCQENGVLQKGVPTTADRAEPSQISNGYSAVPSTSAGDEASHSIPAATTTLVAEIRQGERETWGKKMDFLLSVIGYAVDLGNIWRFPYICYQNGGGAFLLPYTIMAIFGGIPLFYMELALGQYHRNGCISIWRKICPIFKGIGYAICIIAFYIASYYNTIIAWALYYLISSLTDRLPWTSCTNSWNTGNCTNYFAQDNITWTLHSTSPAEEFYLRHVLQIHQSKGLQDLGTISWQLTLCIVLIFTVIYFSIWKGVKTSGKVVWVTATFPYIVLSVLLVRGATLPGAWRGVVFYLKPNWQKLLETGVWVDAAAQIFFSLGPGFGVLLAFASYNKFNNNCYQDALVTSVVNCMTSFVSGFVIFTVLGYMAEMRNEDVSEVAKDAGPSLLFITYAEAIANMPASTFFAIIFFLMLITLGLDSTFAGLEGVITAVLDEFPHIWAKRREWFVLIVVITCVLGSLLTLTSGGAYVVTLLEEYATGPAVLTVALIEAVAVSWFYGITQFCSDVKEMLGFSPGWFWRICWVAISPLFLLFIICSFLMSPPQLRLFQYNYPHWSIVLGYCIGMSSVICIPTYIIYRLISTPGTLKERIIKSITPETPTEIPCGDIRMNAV

[2] = oil preparations, exposed to light; cited from earlier work
bacteria, fungi = conditions: hyperforin, adhyperforin: dilutions of 1:400 or 1:200; cited from earlier work
serotonin transporter [3] = target: T1, serotonin transporter; experiment: serotonin transporter assay, [125I]-RTI-121, rat cerebral cortical membranes; assay type: binding
GABAA receptor = conditions: read-out: Ki(nM) GABAA reference compounds; cited from earlier work
monoamine oxidase B [4] = conditions: reference compounds; read-out: inhibition of monoamine oxidase B IC50; cited from earlier work
[5] = target: glutamate receptor, NMDA agonist site; conditions: cited from earlier work
Monoamine Oxidase A = conditions: read-out: Inhibition of Monoamine Oxidase A Activity IC50; cited from earlier work
monoamine oxidase B [6] = experiment: MAO-B enzyme activity, rat liver mitochondrial fraction, [3H]dopamine; assay type: biochemical; conditions: read-out: MAOB (concentration)
Procedure: MAO-B enzyme activity is assayed in a mitochondrial fraction isolated from rat liver by differential centrifugation. […] Following 20 minutes incubation at 37° C., the reaction is terminated by the addition of 5% HCl. The radioactivity of [^3 H]dopamine in an extraction was determined.

adenosine receptor = adenosine receptor non-selective (ADNS), [3H] NECA, bovine striatal membranes; assay type: binding; conditions: for ADNS: 10^-4, 60 min, 100 µM
Procedure: To determine the inhibitory activity of the substances for the dopamine receptor (dp) the following assay was preformed. A partial receptor preparation was prepared from bovine striatal membranes using [^3 H] spiperone as the ligand at a final concentration of 0.3 nM. To determine non-specific binding cold spiperone was tested at 1 μM. The reactions were carried out in 50 mM Tris-HCl (pH 7.7) containing 120 mM NaCl, 5 mM KCl, 2 mM CaCl2 and 1 mM MgCl2 at 37° C. for 60 minutes. […] The inhibitory properties of the substances for binding of ligand to the adenosine receptor (ADNS) was measured using a partially purified receptor preparation made from bovine striatal membranes. The radioligand used was [^3 H] 5'-N-ethylcarboxyamidoadenosine (NECA) at a final ligand concentration of 4 nM. Non-specific binding was determined in the presence of 10 μM NECA. The reactions were carried out in 50 mM Tris-HCL (pH 7.7) for 60 minutes at 25° C. […] To measure the inhibitory activity of the substances for the opiate receptor (Opiate) receptor was partially purified from rat forebrains. [^3 H] naloxone at 1 nM as the ligand used. Non-specific binding was determined in the presence of 1 μM of naloxone. The assays were carried out in 50 mM Tris-HCl (pH 7.4) at 25° C. for 90 minutes. […] The neuronal nicotinic receptor (Nicotinic Neuronal) was assayed using receptors partially purified from rat cortical membranes. The radioligand used was [^3 H] N-methylcarbamylcholine iodide at a final ligand concentration of 5 nM. Non-specific binding was determined in the presence of 1 μM nicotine sulfate. The assay reactions were carried out in 50 mM Tris-HCl (pH 7.4) containing 120 mM NaCl, 5 mM KCl, 2 mM CaCl2, 1 mM MgCl2, and 3 μM atropine sulfate at 4° C. for 60 minutes. […] To determine how the substances inhibit the corticotropin releasing factor (CRF) partially purified receptor from rat cortical membranes was used as the receptor preparation. […] Tyr-° CRF at a final ligand concentration of 0.1 nM. Non-specific binding was determined in the presence of 1 μM Tyr-° CRF. The reactions were carried out in 50 mM HEPES containing 10 mM MgCl2, 2 mM EGTA, 0.12 TIU/ml aprotinin and 0.3% BSA at 25° C. for 120 minutes. The reaction is terminated by centrifugation in a Sorvall centrifuge for 15 minutes at 4° C.

[7] = test system: muscarinic receptor for the central nervous system; experiment: muscarinic receptor for the central nervous system (M1 Central), [3H] QNB, rat cortical membranes; assay type: binding; conditions: 10^-4; 100 µM
Procedure: Fourteen additional bioassays were preformed on either extracts, fractions or reference compounds for this botanical. To measure inhibition of [^3 H] PK11195 to the benzodiazepine receptor (BDZ) a partially purified receptor preparation was made from rat kidney membranes. The final radioactive ligand concentration was 1 nM and non-specific binding was measured using 200 nM cold PK11195. The substances, receptor and ligand were reacted in 50 mM Tris-HCL (pH 7.7) at 0-4° C. for 60 minutes. The reaction was terminated by rapid filtration of the samples through glass fiber filters. […] The inhibition of [^3 H] pinrenzepine to the muscarinic M1 receptor (M1) by the substances was measured using a partially purified receptor from bovine striatal membranes. The final hot ligand concentration was 1 nM and non-specific binding was determined in the presence of 100 nM atropine. […] The reactions were terminated by rapid vacuum filtration of the reaction mixture through glass fiber filters. […] To assay for biological activity for the muscarinic receptor for the central nervous system, receptor was partially purified from rat cortical membranes. […] Non-specific binding was determined in the presence of 100 nM atropine. […] Non-specific binding was determined using 1 mM NMDA. […] Non-specific binding was determined using 100 μM AMPA.

MAOA = target: T2, MAOA (Rattus norvegicus, UniProt P21396); experiment: MAOA enzymatic activity, rat liver mitochondrial membranes, [14C] serotonin; assay type: biochemical; parameters: using rat liver mitochondrial membranes as a partially purified enzyme source; from tissue; host or cells: rat liver mitochondrial membranes
T2 sequence (P21396 1-526): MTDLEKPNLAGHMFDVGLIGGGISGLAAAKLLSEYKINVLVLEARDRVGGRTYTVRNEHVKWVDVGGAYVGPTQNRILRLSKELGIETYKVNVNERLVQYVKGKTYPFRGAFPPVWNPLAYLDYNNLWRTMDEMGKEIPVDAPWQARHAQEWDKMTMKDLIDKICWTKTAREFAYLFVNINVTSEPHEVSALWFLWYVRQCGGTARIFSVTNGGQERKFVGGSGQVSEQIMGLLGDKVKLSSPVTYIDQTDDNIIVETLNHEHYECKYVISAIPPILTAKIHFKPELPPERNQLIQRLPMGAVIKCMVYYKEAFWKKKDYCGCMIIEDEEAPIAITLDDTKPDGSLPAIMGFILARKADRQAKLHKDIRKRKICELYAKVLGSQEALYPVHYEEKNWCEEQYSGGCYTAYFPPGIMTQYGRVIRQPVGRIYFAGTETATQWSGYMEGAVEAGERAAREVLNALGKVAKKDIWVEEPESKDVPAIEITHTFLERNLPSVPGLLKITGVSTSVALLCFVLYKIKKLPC
Procedure: The inhibition of MAOA enzymatic activity (MAOA) was determined using rat liver mitochondrial membranes as a partially purified enzyme source. […] The reaction involves the conversion of the substrate to [^14 C] 5-hydroxyl indoleacetaldehyde+NH4^+. In brief, the enzyme is preincubated with the substances and the subtype specific blocker deprenyl (at 300 nM) for 60 minutes at 37° C. in 100 mM KPO4 (pH 7.2). Substrate is added and incubated for an additional 10 minutes. The reaction is terminated by the addition of 0.5 ml of 2M citric acid. […] Nitric oxide synthetase activity was measured using a binding assay (NOS). The receptors were made by partial purification of material from rat brain membranes. The radioligand used was [^3 H] L-N^G -Nitro-Arginine (NOARG) at a final concentration of 5 nM. Non-specific binding was determined using 100 μM of NOARG. The assay reactions were carried out in 50 mM Tris-HCl (pH 7.4) for 60 minutes at 25° C.

β-adrenergic receptors = conditions: rat frontal cortex, subchronic (250 mg/kg for 2 weeks; imipramine similar doses); cited from earlier work
stability = assay type: physicochemical; conditions: our data
Description: Some botanicals, such as St. John's Wort, are both temperature and light sensitive. For this type of botanical the material should be dry packed with a refrigerant or shipped under refrigeration and protected from light and air. […] Stability (in absence of air) was increased to six months in a preparation extracted with ethanol.
Phloroglucinola include hyperforin (prenylated derivative of phloroglucinol), adhyperforin (similar to the bitter principle of hops, adhumulone).

herpes simplex = conditions: cited from earlier work
[8] = test system: human immunodeficiency virus type 1 (HIV-1); conditions: cited from earlier work
murine cytomegalovirus = conditions: cited from earlier work
Sindbis virus = conditions: cited from earlier work
[9] = test system: equine infectious anemia virus; conditions: cited from earlier work
protein kinase C = conditions: cited from earlier work

O=[N+]([O-])c1ccc2nc(N3CCNCC3)ccc2c1 [6-NO-Quipazine]
IC50 (serotonin transporter [1]; Reference Data): 3400 nM | nH (serotonin transporter [1]; Reference Data): 0.7400

CCC(C)C(=O)[C@]12C(=O)[C@](CC=C(C)C)(C[C@H](CC=C(C)C)[C@@]1(C)CCC=C(C)C)C(=O)C(CC=C(C)C)=C2O (stereo partly shown) [Adhyperforin, adhyperforin]
degradation time [2]: 14 days

CC(C)=CCCC1(C)C(CC=C(C)C)CC2(CC=C(C)C)C(=O)C(CC=C(C)C)=C(O)C1(C(=O)C(C)C)C2=O (stereo not shown) [Hyperforin, hyperforin]
antibacterial / antifungal / antibiotic effect (bacteria, fungi): antibiotic effect greater than that of sulfonilamide | degradation time [2]: 14 days

O=c1c(O[C@@H]2O[C@H](CO)[C@H](O)[C@H](O)[C@H]2O)c(-c2ccc(O)c(O)c2)oc2cc(O)cc(O)c12 [Hyperoside, hyperoside]
5-HT Reuptake (Table 8, words) (serotonin transporter [3]): Negative

O=C(O)C1=CCNCC1 [Isoguvacine]
Ki (GABAA receptor): 9.5 nM

O=c1c2cc(O)c(O)cc2oc2cc(O)c([C@@H]3O[C@H](CO)[C@@H](O)[C@H](O)[C@H]3O)c(O)c12 [Magniferin, mangiferin]
5-HT Reuptake (Table 8, words) (serotonin transporter [3]): Negative

NCc1cc(=O)[nH]o1 [Muscimol]
Ki (GABAA receptor): 4.4 nM

NCCNC(=O)c1cccc(I)c1 [N-(2-aminoethyl)-3-iodobenzamide hydrochloride]
IC50 (monoamine oxidase B [4]): 1700 nM

CN[C@H](CC(=O)O)C(=O)O [NMDA, N-methyl-D-aspartic acid]
Ki ([5]; read-out: Ki(nM) NMDA reference compounds): 9300 nM

Cc1ccc2c(c1)c1c3n2CCNC3CCC1 (stereo not shown) [Pirlindole Mesylate]
IC50 (Monoamine Oxidase A): 16 nM

O=c1c(O)c(-c2ccc(O)c(O)c2)oc2cc(O)cc(O)c12 [Quercetin, quercetin]
IC50 (monoamine oxidase B [6]): 2400 nM | 5-HT Reuptake (Table 8, words) (serotonin transporter [3]): Negative | ADNS (adenosine receptor): 45% and 27% | M1 Central [7]: 27% | MAOA (Table 8, words) (MAOA): verified the MAOA activity | IC50 (MAOA; read-out: MAOA (concentration)): 8200 nM

C[C@@H]1O[C@@H](Oc2c(-c3ccc(O)c(O)c3)oc3cc(O)cc(O)c3c2=O)[C@H](O)[C@H](O)[C@H]1O [Quercitrin, quercitrin]
5-HT Reuptake (Table 8, words) (serotonin transporter [3]): Negative | inhibition at 100 µM (serotonin transporter [3]; 10^-4, read-out: Sero): 39% | inhibition at 100 µM (serotonin transporter [3]; 10^-4 M, read-out: Sero % inhibition (PharmaPrint range)): 40 ± 20% | ADNS (adenosine receptor): 45% | AD,NS % inhibition (PharmaPrint range) (adenosine receptor; 10^-4 M): 45 ± 20%

c1ccc2nc(N3CCNCC3)ccc2c1 [Quipazine maleate]
nH (serotonin transporter [1]; Reference Data): 0.8550

C[C@@H]1O[C@@H](OC[C@H]2O[C@@H](Oc3c(-c4ccc(O)c(O)c4)oc4cc(O)cc(O)c4c3=O)[C@H](O)[C@@H](O)[C@@H]2O)[C@H](O)[C@H](O)[C@H]1O [Rutin, rutin]
5-HT Reuptake (Table 8, words) (serotonin transporter [3]): Negativee

O=c1[nH]oc2c1CCNC2 [THIP, 4,5,6,7Tetrahydroisoxazolo[5,4c]pyridin3(2H)one]
Ki (GABAA receptor): 25.1 nM

c1cc2c(cc1C1CCCCC1)c1c3n2CCNC3CCC1 (stereo not shown) [Tetrindole Mesylate]
IC50 (Monoamine Oxidase A): 46 nM

CCCC(=CC(N)C(=O)O)CP(=O)(O)O (stereo not shown) [[^3 H]-CGP 39653]
Kd ([5]; radioligand, read-out: KD (binding affinity)): 7 nM

CC(C)OC(=O)[C@H]1[C@@H](c2ccc([125I])cc2)C[C@@H]2CC[C@H]1N2C [[^125 I]-RTI-121]
Kd (serotonin transporter [1]; radioligand): 1.1 nM

CN(C)CCCN1c2ccccc2CCc2ccccc21 [imipramine]
down-regulation of β-adrenergic receptors (β-adrenergic receptors): 25%

Cc1cc(O)c2c(=O)c3c(O)cc(O)c4c5c(O)cc(O)c6c(=O)c7c(O)cc(CO)c8c1c2c(c34)c(c65)c78 [pseudohypericin]
stability in solution (stability): unstable in solution | inhibition of herpes simplex (herpes simplex): inhibit | inhibition of HIV-1 [8]: inhibit | activity against murine cytomegalovirus (murine cytomegalovirus): Activity has also been reported | activity against Sindbis virus (Sindbis virus): Activity has also been reported | activity against equine infectious anemia virus [9]: Activity has also been reported | protein kinase C IC50 (protein kinase C): 15 µg/mL
